According to US20050033056A1, “Hydroxylated indole derivatives and uses thereof” (priority 2001, published 2005):

Columns and labels:
[1] = target: CYP2D6 (Homo sapiens, UniProt P10635); test: CYP inhibition in HLM: bufuralol 1'-hydroxylation; assay type: in vitro ADME; parameters: tissue Gentest Corp. (Woburn, Mass.); host or cells: pooled human liver microsomes; settings: in the presence of Compound 1, concentration-dependent
Description: The incubations were carried out in test tubes (12.0×75 mm). The incubation mixtures (250 μL) contained 0.5 mg of HLM protein, 50 (CYP1A2 and CYP2E1) or 25 (CYP2C9, CYP2C19, CYP2D6 and CYP3A4) pmol of recombinant human CYPs, Compound 1 (10 or 50 μM), probe substrate (R—, S-warfarin, chlorzoxazone, S-mephenyloin, or bufuralol) at different concentrations, and 0.5 mg of NADPH in 50 mM Tris buffer containing 15 mM MgCl2 (pH 7.4). Compound 1 was added to the reaction mixture 5 minutes prior to the addition of the probe substrate. […]
The quantification was based on the calibration curves, and the quality control (QC) samples were applied to ensure the quality of the experiments. […]
3. […] Multiple reaction monitoring (MRM) was applied for the quantification. […]
Data were acquired and analyzed by ChemStation (Version 6.03, Hewlett Packard, Waldbronn, Germany) for 6-, 7-, and 10-hydroxywarfarin and 6-hydroxychlorzoxazone, and MacQuan (Version 1.6, PE Biosystem, Foster City, Calif.) for 1′-hydroxybufuralol and 4′-hydroxymephenytoin. Quantification was based on peak area ratios of metabolites over the respective IS against the respective concentration of the metabolites. […] The metabolic rates were determined using Excel (Microsoft Office 97, Microsoft Corporation, Redmond, Wash.) or SigmaPlot (Version 6.00, SPSS Inc. Chicago, Ill.). […]

[2] = test system: primary culture of human hepatocytes; test: Morphology of primary human hepatocytes during treatment; assay type: cell-based; settings: cells exposed to Compound 1 compared with control cells
Description: (§1) Upon receiving a primary culture of human hepatocytes in 6-well plates, the culture medium containing streptomycin/penicillin was refreshed (2 ml/well). […] Compound 1 stock solution was added to the culture medium at a 1:400 ratio (v/v). The culture medium and testing compounds were replenished every 24 hours.

[3] = test system: major CYP expression; test: CYP induction in primary hepatocyte cultures (summary statement, major CYPs); assay type: cell-based, human; settings: 72 hour exposure to 10 or 50 μM; primary hepatocyte cultures from three subjects
Description: as §1
At the end of the treatment, the cells were harvested into 1 mL of phosphate-buffered saline (PBS) after washing twice. The cells were precipitated by centrifugation, and were resuspended in PBS (approximately 50 μL). The sample preparation, after mixing with […] of Laemmli buffer (62.5 mM Tris-HCl containing 2% SDS, 25% glycerol, and 0.01% bromophenol, pH 6.8) and being rocked for 2-4 hours, was mixed with 10 μL of 2-mercaptoethanol, and heated at 90° C. for 10 minutes before electrophoresis.
Proteins were resolved in a 12% SDS-PAGE gel using a mini gel apparatus at a constant voltage ([…]) for 70-80 minutes, and transferred onto a polyvinylidene difluoride (PVDF) membrane using a membrane-transferring unit at a constant voltage ([…]) for 60 minutes. The membrane was blocked by 5% non-fat dried milk (NFDM) blotting buffer (PBS containing 0.05% Tween 20) at 4° C. overnight. […] CYP proteins were detected by […] using an X-ray developer.

CYP2D6, sequence (P10635 whole entry): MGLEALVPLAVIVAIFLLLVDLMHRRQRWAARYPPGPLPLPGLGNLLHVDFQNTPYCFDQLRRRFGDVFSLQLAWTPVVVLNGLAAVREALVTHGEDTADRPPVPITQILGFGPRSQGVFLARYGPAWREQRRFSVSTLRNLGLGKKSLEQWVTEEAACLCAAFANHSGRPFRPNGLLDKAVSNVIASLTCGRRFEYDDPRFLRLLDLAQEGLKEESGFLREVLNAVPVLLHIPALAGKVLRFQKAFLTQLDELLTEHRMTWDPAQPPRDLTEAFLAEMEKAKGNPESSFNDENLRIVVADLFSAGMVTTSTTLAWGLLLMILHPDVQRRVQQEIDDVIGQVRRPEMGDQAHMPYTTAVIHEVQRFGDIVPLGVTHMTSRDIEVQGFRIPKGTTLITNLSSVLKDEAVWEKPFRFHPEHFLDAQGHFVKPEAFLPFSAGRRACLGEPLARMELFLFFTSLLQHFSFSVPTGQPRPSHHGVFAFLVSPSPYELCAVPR

With CNC(=O)Cc1ccc2ccn(C3CCN(CCc4ccccc4F)CC3)c2c1 [Compound 1, N-methyl-[1-[1-(2-fluorophenethyl)piperidine-4-yl]-1H-indol-6-yl] acetamide] the “effect on CYP2D6-mediated bufuralol 1'-hydroxylation activity (in words)” value [1] was “significantly reduced”, the “morphologic changes of hepatocytes” value [2] was “marked morphologic changes were not observed” and the “Induction of major CYP expression (immunochemical detection)” value [3] was “not detected”.
